{"source": "patent US10864216B2", "about": "“Phenothiazine diaminium salts and their use” (WisTa Laboratories Ltd., priority 2011, dated 2020)", "key": {"[1]": {"target": "full-length human tau protein (htau40) and truncated tau (295-390, dGA) in 3T6 mouse cells (Homo sapiens, UniProt P10636)", "experiment": "Cell-based tau aggregation assay"}, "[2]": {"target": "T1, truncated tau (amino acids 297-391) in solution binding to solid-phase bound truncated tau (residues 297-390) (Homo sapiens, UniProt P10636)", "T1 construct": "made in house", "T1 sequence (P10636 614-708)": "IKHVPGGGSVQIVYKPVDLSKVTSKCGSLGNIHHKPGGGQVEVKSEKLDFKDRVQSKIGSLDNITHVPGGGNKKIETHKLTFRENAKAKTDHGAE", "T1 sequence (P10636 614-707)": "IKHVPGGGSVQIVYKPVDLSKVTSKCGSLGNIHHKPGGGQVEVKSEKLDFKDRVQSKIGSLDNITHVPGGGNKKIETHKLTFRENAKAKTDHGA", "experiment": "Solid phase assay for tau aggregation (tau-tau binding, B50)", "conditions": "concentration at which tau-tau binding is decreased by 50%; mean ± SE", "description": "The tau-tau aggregation assay uses purified recombinant tau fragments in a solid-phase immunoassay. Methods are described in detail in e.g. WO 96/30766. Briefly, the assay measures the binding of truncated tau (amino acids 297-391) in solution to solid-phase bound truncated tau (residues 297-390). Binding of the former is detected with the antibody mAb 423, which specifically recognises peptides containing a C-terminal Glu-391 residue. The Tau complex formed in vitro is similar to the aggregated complex that forms in Alzheimer's disease as a consequence of the stability of the pathological Tau-Tau binding interaction through a 94/95-amino acid repeat domain (residues 297-390), found in the proteolytically stable core of the paired helical filament.\nThe B50 value (expressed as mean±SE) is determined as the concentration of compound at which tau-tau binding is decreased by 50%."}, "female Wistar rats": {"system": "female Wistar rats", "experiment": "14 day oral administration to rats: toxicology and neutrophil response", "type": "in vivo", "description": "Table: Neutrophil response in rats following 14 day oral administration of different salt forms of LMT."}, "[3]": {"experiment": "Solubility of LMT salts in aqueous HCl solutions at 37° C.", "type": "physicochemical", "conditions": "lower limit complete dissolution, upper limit saturation", "experimental": "Two aqueous solutions (pH 2.00 and 3.01 at 21.4° C.) were prepared by carefully adding HCl (5 M) to deionised water. In each experiment a 5 ml aliquot of one of the aforementioned solutions was heated to 37° C. […] This step was repeated until no further dissolution took place."}}, "data": [{"smiles": "CN(C)c1ccc2c(c1)Sc1cc(N(C)C)ccc1N2", "note": "[LMT.EDSA, N,N,N′,N′-Tetramethyl-10H-phenothiazine-3,7-diaminium ethanedisulfonate]", "values": [{"measurement": "THx, therapeutic index (THx = LD50/EC50)", "setting": "[1]; listed as LMT•EDSA", "result": 115}, {"measurement": "EC50 (μM)", "setting": "[1]; listed as LMT•EDSA", "result": "0.68 ± 0.32 (n = 4) μM"}, {"measurement": "IC50", "setting": "[2]", "result": "400 ± 17.6", "unit": "µM"}]}, {"smiles": "CN(C)c1ccc2c(c1)Sc1cc(N(C)C)ccc1N2", "note": "[LMT.2EsOH, N,N,N′,N′-Tetramethyl-10H-phenothiazine-3,7-diaminium bis(ethanesulfonate)]", "values": [{"measurement": "THx, therapeutic index (THx = LD50/EC50)", "setting": "[1]; listed as LMT•2EsOH", "result": 100}, {"measurement": "EC50 (μM)", "setting": "[1]; listed as LMT•2EsOH", "result": "0.52 ± 0.13 (n = 3) μM"}, {"measurement": "IC50", "setting": "[2]", "result": "297 ± 75.1", "unit": "µM"}]}, {"smiles": "CS(=O)(=O)O", "note": "[MSA, methansulfonic acid, reference compound]", "values": [{"measurement": "IC50", "setting": "[2]", "result": "> 500", "unit": "µM"}]}, {"smiles": "O=S(=O)(O)CCS(=O)(=O)O", "note": "[EDSA, ethanedisulfonic acid, reference compound]", "values": [{"measurement": "IC50", "setting": "[2]", "result": "> 500", "unit": "µM"}]}, {"smiles": "CN(C)c1ccc2c(c1)Sc1cc(N(C)C)ccc1N2", "note": "[LMT.NDSA, N,N,N′,N′-Tetramethyl-10H-phenothiazine-3,7-diaminium naphthalenedisulfonate]", "values": [{"measurement": "THx, therapeutic index (THx = LD50/EC50)", "setting": "[1]; listed as LMT•NDSA", "result": 108}, {"measurement": "EC50 (μM)", "setting": "[1]; listed as LMT•NDSA", "result": "0.71 ± 0.34 (n = 4) μM"}, {"measurement": "IC50", "setting": "[2]", "result": "334 ± 63.2", "unit": "µM"}]}, {"smiles": "CN(C)c1ccc2c(c1)Sc1cc(N(C)C)ccc1N2", "note": "[LMT.2TsOH, N,N,N′,N′-Tetramethyl-10H-phenothiazine-3,7-diaminium bis(p-toluenesulfonate)]", "values": [{"measurement": "THx, therapeutic index (THx = LD50/EC50)", "setting": "[1]; bis(p-toluenesulfonate)", "result": 140}, {"measurement": "IC50", "setting": "[2]", "result": "296 ± 37.9", "unit": "µM"}]}, {"smiles": "CN(C)c1ccc2c(c1)Sc1cc(N(C)C)ccc1N2.Cl.Cl", "note": "[LMT.2HCl, N,N,N′,N′-tetramethyl-10H-phenothiazine-3,7-diaminium dichloride]", "values": [{"measurement": "THx, therapeutic index (THx = LD50/EC50)", "setting": "[1]", "result": 102}, {"measurement": "Neutropaenia in prepared blood smears (mature neutrophils)", "setting": "female Wistar rats; 14 days", "result": "no decrease"}, {"measurement": "Neutrophils (total neutrophils as percentage of total white cells)", "setting": "female Wistar rats; 14 days oral, 95 mg MT/kg/day Days 1-10, 60 mg MT/kg/day Days 11-14", "result": 19.90, "unit": "%"}, {"measurement": "Dose-related deaths", "setting": "female Wistar rats; 14 days oral, animal numbers per group of 8 rats", "result": "0/8"}, {"measurement": "Early neutrophils (frequency of presence of immature neutrophils per animal group)", "setting": "female Wistar rats; 14 days oral, animals per group of 8", "result": "2/8"}, {"measurement": "IC50", "setting": "[2]", "result": "361 ± 38.2", "unit": "µM"}, {"measurement": "Solubility g/5 ml (37° C.)", "setting": "[3]; aqueous HCl solution pH 2.00 (21.4° C.)", "result": "4.404-4.961 g/5 ml"}, {"measurement": "Solubility g/5 ml (37° C.)", "setting": "[3]; aqueous HCl solution pH 3.01 (21.4° C.)", "result": "4.978-6.029 g/5 ml"}]}]}
